The text below walks through data of patent US4450269A, “Mono-5-substituted-3-chloro-4H-1,2,6-thiadiazin-4-one antifungal agents” (FMC Corporation, priority 1980, dated 1984).

The test system of one assay is Uromyces phaseoli. In words: Spore germination test. The class given is cell-based. To be noted: UP, 48 hours. The method in brief: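 Compound was delivered in acetone into water agar at final 40, 10, 2.5 and 1 ppm. Alternaria solani and Botrytis cinerea spores were applied as sterile-water suspensions, while Erysiphe polygoni and Uromyces phaseoli spores were brushed on from infected leaves. After 48 h at 24° C., percentage germination was converted to a rating.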

A further assay relates to Pyricularia oryzae. The class given is cell-based. To be noted: PO, 48 hours.

Structures can show the parent of a compound that is named as a salt. Where two headings read alike, the source gives them in different places.

As for `Nc1ccc(Oc2nsnc(Cl)c2=O)cc1` [Compound 27, 5-(4-aminophenoxy)-3-chloro-4H--1,2,6-thiadiazine-4-one hydrochloride], the “Spore Germination Rating” value is reported as 4 (80-100) with Uromyces phaseoli (1.0 ppm, hydrochloride); 1 (10-40) in the assay with Uromyces phaseoli (2.5 ppm, hydrochloride); 1 (10-40) in the assay with Uromyces phaseoli (10 ppm, hydrochloride); 0 (0-10) with Uromyces phaseoli (40 ppm, hydrochloride); 0 (0-10) with Pyricularia oryzae (2.5 ppm, hydrochloride).
For `CNC(=O)Nc1ccc(Oc2nsnc(Cl)c2=O)cc1` [Compound 28, 3-chloro-5-[4-(3-methylureido)-phenoxy]-4H--1,2,6-thiadiazin-4-one], the “Spore Germination Rating” value in the assay on Uromyces phaseoli (1.0 ppm) is 4 (80-100); in the assay with Uromyces phaseoli (2.5 ppm), 2 (40-60); in the assay with Uromyces phaseoli (10 ppm), 2 (40-60); in the assay on Uromyces phaseoli (40 ppm), 2 (40-60); with Pyricularia oryzae (1.0 ppm) it was 4 (80-100); in the assay on Pyricularia oryzae (2.5 ppm), 4 (80-100). The “Spore Germination Rating” value is 4 (80-100) in the assay on Pyricularia oryzae (10 ppm) and 1 (10-40) in the assay with Pyricularia oryzae (40 ppm).
In the case of `O=C(Nc1ccccc1)Nc1ccc(Oc2nsnc(Cl)c2=O)cc1` [Compound 29, 3-chloro-5-[4-(3-phenylureido)-phenoxy]-4H--1,2,6-thiadiazin-4-one], the “Spore Germination Rating” value with Uromyces phaseoli (1.0 ppm) is 4 (80-100); in the assay on Uromyces phaseoli (2.5 ppm), 2 (40-60); in the assay with Uromyces phaseoli (10 ppm), 2 (40-60); in the assay on Uromyces phaseoli (40 ppm), 0 (0-10); in the assay with Pyricularia oryzae (1.0 ppm), 4 (80-100); in the assay on Pyricularia oryzae (2.5 ppm) it was 4 (80-100). Also, the “Spore Germination Rating” value in the assay on Pyricularia oryzae (10 ppm) was 4 (80-100); with Pyricularia oryzae (40 ppm), 2 (40-60).
As for `O=c1c(Cl)nsnc1Oc1c(Cl)cc(Cl)cc1Cl` [Compound 30, 3-chloro-5-(2,4,6-trichlorophenoxy)-4H--1,2,6-thiadiazin-4-one], the “Spore Germination Rating” value in the assay with Uromyces phaseoli (1.0 ppm) was 0 (0-10); in the assay on Uromyces phaseoli (2.5 ppm) it was 0 (0-10); with Uromyces phaseoli (10 ppm), 0 (0-10); with Uromyces phaseoli (40 ppm) it was 0 (0-10); in the assay with Pyricularia oryzae (1.0 ppm), 3 (60-80); with Pyricularia oryzae (2.5 ppm), 0 (0-10). In addition, the “Spore Germination Rating” value in the assay on Pyricularia oryzae (10 ppm) and with Pyricularia oryzae (40 ppm) was 0 (0-10) each time.
`O=c1c(Cl)nsnc1Oc1c(Cl)c(Cl)c(Cl)c(Cl)c1Cl` [Compound 31, 3-chloro-5-(pentachlorophenoxy)-4H--1,2,6-thiadiazine-4-one]: the “Spore Germination Rating” value in the assay with Uromyces phaseoli (1.0 ppm), in the assay on Uromyces phaseoli (2.5 ppm), in the assay on Uromyces phaseoli (10 ppm), in the assay with Uromyces phaseoli (40 ppm), with Pyricularia oryzae (1.0 ppm) and with Pyricularia oryzae (2.5 ppm) was 0 (0-10) throughout. The “Spore Germination Rating” value with Pyricularia oryzae (10 ppm) and with Pyricularia oryzae (40 ppm) was 0 (0-10) each time.
As to `O=c1c(Cl)nsnc1Oc1cccc2ccccc12` [Compound 32, 3-chloro-5(1-naphthoxy)-4H-1,2,6-thiadiazin-4-one], the “Spore Germination Rating” value is 3 (60-80) in the assay on Uromyces phaseoli (1.0 ppm); 0 (0-10) with Uromyces phaseoli (2.5 ppm); 0 (0-10) with Uromyces phaseoli (10 ppm); 0 (0-10) with Uromyces phaseoli (40 ppm); 2 (40-60) in the assay on Pyricularia oryzae (1.0 ppm); 0 (0-10) in the assay on Pyricularia oryzae (2.5 ppm). Besides, the “Spore Germination Rating” value in the assay on Pyricularia oryzae (10 ppm) and with Pyricularia oryzae (40 ppm) was 0 (0-10) in each case.
Turning to `O=c1c(Cl)nsnc1Oc1ccccc1Br` [Compound 34, 3-chloro-5-(2-bromophenoxy)-4H-1,2,6,-thiadiazin-4-one], the “Spore Germination Rating” value is given as 0 (0-10) with Uromyces phaseoli (1.0 ppm); 0 (0-10) with Uromyces phaseoli (2.5 ppm); 0 (0-10) in the assay on Uromyces phaseoli (10 ppm); 0 (0-10) with Uromyces phaseoli (40 ppm); 1 (10-40) in the assay with Pyricularia oryzae (1.0 ppm); 0 (0-10) in the assay with Pyricularia oryzae (2.5 ppm). Moreover, the “Spore Germination Rating” value in the assay with Pyricularia oryzae (10 ppm) and with Pyricularia oryzae (40 ppm) was 0 (0-10) in each case.
Consider `O=C(Nc1ccccc1)Oc1ccc(Oc2nsnc(Cl)c2=O)cc1` [Compound 37, 3-chloro-5-[4-(phenylaminocarbonyloxy)phenoxy]-4H-1,2,6,-thiadiazin-4-one], for which the “Spore Germination Rating” value is given as 4 (80-100) in the assay on Uromyces phaseoli (1.0 ppm); 2 (40-60) in the assay with Uromyces phaseoli (2.5 ppm); 1 (10-40) with Uromyces phaseoli (10 ppm); 1 (10-40) in the assay on Uromyces phaseoli (40 ppm); 4 (80-100) in the assay with Pyricularia oryzae (1.0 ppm); 3 (60-80) in the assay with Pyricularia oryzae (2.5 ppm). The “Spore Germination Rating” value with Pyricularia oryzae (10 ppm) was 0 (0-10); in the assay on Pyricularia oryzae (40 ppm), 2 (40-60).
For the molecule `O=C(OCc1ccccc1)Oc1ccc(Oc2nsnc(Cl)c2=O)cc1` [Compound 38, 3-chloro-5-[4-(phenylmethoxycarbonyloxy)phenoxyl]-4H-1,2,6-thiadiazin-4-one], the “Spore Germination Rating” value with Uromyces phaseoli (1.0 ppm) is given as 4 (80-100); with Uromyces phaseoli (2.5 ppm), 4 (80-100); in the assay on Uromyces phaseoli (10 ppm), 3 (60-80); in the assay on Uromyces phaseoli (40 ppm) it was 2 (40-60); in the assay with Pyricularia oryzae (1.0 ppm), 4 (80-100); in the assay on Pyricularia oryzae (2.5 ppm), 3 (60-80). For the same molecule, the “Spore Germination Rating” value in the assay on Pyricularia oryzae (10 ppm) and in the assay with Pyricularia oryzae (40 ppm) was 2 (40-60) in each case.
Take `CSc1ccc(Oc2nsnc(Cl)c2=O)cc1` [Compound 39, 3-chloro-5-[(4-methylthio)phenoxy]-4H-1,2,6,-thiadiazin-4-one]: the “Spore Germination Rating” value in the assay on Uromyces phaseoli (1.0 ppm) is reported as 2 (40-60); in the assay with Uromyces phaseoli (2.5 ppm), 2 (40-60); in the assay on Uromyces phaseoli (10 ppm), 2 (40-60); in the assay on Uromyces phaseoli (40 ppm), 0 (0-10); in the assay with Pyricularia oryzae (1.0 ppm), 2 (40-60); in the assay on Pyricularia oryzae (2.5 ppm), 1 (10-40). Moreover, the “Spore Germination Rating” value with Pyricularia oryzae (10 ppm) is 1 (10-40); in the assay on Pyricularia oryzae (40 ppm), 0 (0-10).
In the case of `C[S+]([O-])c1ccc(Oc2nsnc(Cl)c2=O)cc1` (stereo not drawn) [Compound 40, 3-chloro-5-[(4-methylsulfinyl)phenoxy]-4H-1,2,6,-thiadiazin-4-one], the “Spore Germination Rating” value is on record as 3 (60-80) in the assay with Uromyces phaseoli (1.0 ppm); 2 (40-60) in the assay on Uromyces phaseoli (2.5 ppm); 1 (10-40) in the assay with Uromyces phaseoli (10 ppm); 1 (10-40) with Uromyces phaseoli (40 ppm); 4 (80-100) in the assay on Pyricularia oryzae (1.0 ppm); 3 (60-80) with Pyricularia oryzae (2.5 ppm). In addition, the “Spore Germination Rating” value is recorded as 4 (80-100) in the assay on Pyricularia oryzae (10 ppm) and 1 (10-40) in the assay with Pyricularia oryzae (40 ppm).
With `CC(=O)Nc1cccc(Oc2nsnc(Cl)c2=O)c1` [Compound 42, 3-[(3-N--acetylamino)-phenoxy]-5-chloro-4H--1,2,6-thiadiazin-4-one], the “Spore Germination Rating” value with Uromyces phaseoli (1.0 ppm) is 4 (80-100); with Uromyces phaseoli (2.5 ppm) it was 3 (60-80); in the assay with Uromyces phaseoli (10 ppm), 1 (10-40); with Uromyces phaseoli (40 ppm) it was 0 (0-10); in the assay with Pyricularia oryzae (1.0 ppm) it was 4 (80-100); in the assay with Pyricularia oryzae (2.5 ppm), 4 (80-100). For the same molecule, the results for the “Spore Germination Rating” value in the assay with Pyricularia oryzae (10 ppm) and in the assay on Pyricularia oryzae (40 ppm) were 3 (60-80) and 0 (0-10), respectively.
Regarding `CC(=O)Nc1ccccc1Oc1nsnc(Cl)c1=O` [Compound 43, 3-[(2-acetylamino)-phenoxy]-5-chloro-4H--1,2,6-thiadiazin-4-one], the “Spore Germination Rating” value with Uromyces phaseoli (1.0 ppm), in the assay on Uromyces phaseoli (2.5 ppm), in the assay on Uromyces phaseoli (10 ppm), in the assay with Uromyces phaseoli (40 ppm), with Pyricularia oryzae (1.0 ppm) and in the assay with Pyricularia oryzae (2.5 ppm) was 4 (80-100) each time. Besides, the “Spore Germination Rating” value in the assay on Pyricularia oryzae (10 ppm) is on record as 4 (80-100); with Pyricularia oryzae (40 ppm), 1 (10-40).
`O=c1c(Cl)nsnc1Oc1cccc(C(F)(F)F)c1` [Compound 44, 3-chloro-5-[(3-trifluoromethyl)phenoxy]-4H--1,2,6-thiadiazin-4-one]: the “Spore Germination Rating” value in the assay on Uromyces phaseoli (1.0 ppm) is 1 (10-40); in the assay on Uromyces phaseoli (2.5 ppm), 0 (0-10); with Uromyces phaseoli (10 ppm), 0 (0-10); in the assay on Uromyces phaseoli (40 ppm), 0 (0-10); in the assay on Pyricularia oryzae (1.0 ppm) it was 1 (10-40); with Pyricularia oryzae (2.5 ppm) it was 0 (0-10). In addition, the “Spore Germination Rating” value in the assay on Pyricularia oryzae (10 ppm) and in the assay with Pyricularia oryzae (40 ppm) was 0 (0-10) in each case.
Regarding `O=C(O)Cc1ccccc1Oc1nsnc(Cl)c1=O` [Compound 45, 3-(2-carboxymethylphenoxy)-5-chloro-4H--1,2,6-thiadiazin-4-one], the “Spore Germination Rating” value in the assay on Uromyces phaseoli (1.0 ppm) was 4 (80-100); with Uromyces phaseoli (2.5 ppm) it was 4 (80-100); with Uromyces phaseoli (10 ppm), 4 (80-100); in the assay on Uromyces phaseoli (40 ppm), 2 (40-60); in the assay with Pyricularia oryzae (1.0 ppm), 4 (80-100); in the assay with Pyricularia oryzae (2.5 ppm), 4 (80-100). Also, the “Spore Germination Rating” value in the assay on Pyricularia oryzae (10 ppm) is 4 (80-100); in the assay on Pyricularia oryzae (40 ppm), 1 (10-40).
Take `N#CCc1ccc(Oc2nsnc(Cl)c2=O)cc1` [Compound 46, 3-chloro-5-[(4-cyanomethyl)-phenoxy]4H--1,2,6-thiadiazin-4-one]: the “Spore Germination Rating” value is 1 (10-40) in the assay on Uromyces phaseoli (1.0 ppm); 0 (0-10) in the assay with Uromyces phaseoli (2.5 ppm); 0 (0-10) in the assay on Uromyces phaseoli (10 ppm); 0 (0-10) in the assay on Uromyces phaseoli (40 ppm); 0 (0-10) in the assay with Pyricularia oryzae (1.0 ppm); 0 (0-10) in the assay with Pyricularia oryzae (2.5 ppm). For the same molecule, the “Spore Germination Rating” value in the assay with Pyricularia oryzae (10 ppm) and in the assay with Pyricularia oryzae (40 ppm) was 0 (0-10) in each case.
In the case of `CC(=O)c1ccc(Oc2nsnc(Cl)c2=O)cc1` [Compound 47, 3-(4-acetylphenoxy)-5-chloro-4H--1,2,6-thiadiazin-4-one], the “Spore Germination Rating” value in the assay on Uromyces phaseoli (1.0 ppm) is recorded as 0 (0-10); in the assay on Uromyces phaseoli (2.5 ppm), 0 (0-10); in the assay on Uromyces phaseoli (10 ppm) it was 0 (0-10); with Uromyces phaseoli (40 ppm), 0 (0-10); in the assay with Pyricularia oryzae (1.0 ppm) it was 1 (10-40); with Pyricularia oryzae (2.5 ppm), 0 (0-10). The “Spore Germination Rating” value with Pyricularia oryzae (10 ppm) and with Pyricularia oryzae (40 ppm) was 0 (0-10) throughout.
As to `CC(=O)c1cccc(Oc2nsnc(Cl)c2=O)c1` [Compound 48, 3-(3-acetylphenoxy)-5-chloro-4H--1,2,6-thiadiazin-4-one], the “Spore Germination Rating” value in the assay on Uromyces phaseoli (1.0 ppm) is 0 (0-10); with Uromyces phaseoli (2.5 ppm), 0 (0-10); in the assay on Uromyces phaseoli (10 ppm), 0 (0-10); with Uromyces phaseoli (40 ppm), 0 (0-10); in the assay on Pyricularia oryzae (1.0 ppm), 3 (60-80); in the assay on Pyricularia oryzae (2.5 ppm) it was 1 (10-40). The “Spore Germination Rating” value in the assay with Pyricularia oryzae (10 ppm) and in the assay on Pyricularia oryzae (40 ppm) was 0 (0-10) throughout.
